# Assay results taken from PMC7071059, “Targeting Receptor Tyrosine Kinase VEGFR-2 in Hepatocellular Cancer: Rational Design, Synthesis and Biological Evaluation of 1,2-Disubstituted Benzimidazoles” (Molecules, 2020).
# Like-named read-outs stand apart in the source and are kept apart here.
# Legend:
# [1] = system: HepG2 cell line; assay: In vitro cytotoxic activity, Sulfo-Rhodamine-B (SRB) assay; type: cell-based, human; details: read-out: IC50 (μM) on HepG2 Cell Line
# [2] = target: VEGFR-2 (Homo sapiens, UniProt P35968); assay: Biochemical kinase assay (Kinase-Glo Plus luminescence)
# Procedure: This assay was carried out using the VEGFR-2 kinase enzyme system or FGFR-1 kinase enzyme system and Kinase-Glo Plus luminescence kinase (Promega) kits according to the manufacturers´ protocols. This assay evaluated the activity of kinase by measuring the amount of ATP remaining in solution after a kinase reaction. The luminescent signal from the assay was related to the quantity of ATP available, which was inversely proportional to the amount of kinase activity. […] Subsequently, serial dilutions were carried out, and 5 µL of the dilution was added to a 50 µL reaction. The enzymatic reactions were performed at 30 °C for 45 minutes. The 50 µL reaction mixture contained 40 mM Tris, pH 7.4, 10 mM MgCl2, 0.1 mg/mL BSA, 1 mM DTT, 0.2 mg/ml Poly (Glu, Tyr) substrate, 10 μM ATP and protein. After the enzymatic reaction, 50 µL of Kinase-Glo Plus Luminescence kinase assay solution was added to each reaction, and the plates were incubated for 15 minutes at room temperature. The luminescence signal was measured using a Tecan–spark multimode microplate reader. The difference between luminescence intensities in the absence of Kinase (Lut) and in the presence of Kinase (Luc) was defined as 100% activity (Lut − Luc). Using a luminescence signal (Lu) in the presence of the compound, % activity was calculated as: % activity = {(Lut − Lu)/(Lut − Luc)}×100%, where Lu = the luminescence intensity in the presence of the compound.
# [3] = system: HepG2 cell line; set-up: method as in PMID 28505536; details: earlier 2-furylbenzimidazole, comparison value; cited from earlier work
# [4] = Homo sapiens, HepG2, 48 h, SRB assay, 48 h, mean of three independent experiments
# [5] = SRB assay, 48 h, mean of three independent experiments
# Sequence of VEGFR-2 (P35968 20-1356): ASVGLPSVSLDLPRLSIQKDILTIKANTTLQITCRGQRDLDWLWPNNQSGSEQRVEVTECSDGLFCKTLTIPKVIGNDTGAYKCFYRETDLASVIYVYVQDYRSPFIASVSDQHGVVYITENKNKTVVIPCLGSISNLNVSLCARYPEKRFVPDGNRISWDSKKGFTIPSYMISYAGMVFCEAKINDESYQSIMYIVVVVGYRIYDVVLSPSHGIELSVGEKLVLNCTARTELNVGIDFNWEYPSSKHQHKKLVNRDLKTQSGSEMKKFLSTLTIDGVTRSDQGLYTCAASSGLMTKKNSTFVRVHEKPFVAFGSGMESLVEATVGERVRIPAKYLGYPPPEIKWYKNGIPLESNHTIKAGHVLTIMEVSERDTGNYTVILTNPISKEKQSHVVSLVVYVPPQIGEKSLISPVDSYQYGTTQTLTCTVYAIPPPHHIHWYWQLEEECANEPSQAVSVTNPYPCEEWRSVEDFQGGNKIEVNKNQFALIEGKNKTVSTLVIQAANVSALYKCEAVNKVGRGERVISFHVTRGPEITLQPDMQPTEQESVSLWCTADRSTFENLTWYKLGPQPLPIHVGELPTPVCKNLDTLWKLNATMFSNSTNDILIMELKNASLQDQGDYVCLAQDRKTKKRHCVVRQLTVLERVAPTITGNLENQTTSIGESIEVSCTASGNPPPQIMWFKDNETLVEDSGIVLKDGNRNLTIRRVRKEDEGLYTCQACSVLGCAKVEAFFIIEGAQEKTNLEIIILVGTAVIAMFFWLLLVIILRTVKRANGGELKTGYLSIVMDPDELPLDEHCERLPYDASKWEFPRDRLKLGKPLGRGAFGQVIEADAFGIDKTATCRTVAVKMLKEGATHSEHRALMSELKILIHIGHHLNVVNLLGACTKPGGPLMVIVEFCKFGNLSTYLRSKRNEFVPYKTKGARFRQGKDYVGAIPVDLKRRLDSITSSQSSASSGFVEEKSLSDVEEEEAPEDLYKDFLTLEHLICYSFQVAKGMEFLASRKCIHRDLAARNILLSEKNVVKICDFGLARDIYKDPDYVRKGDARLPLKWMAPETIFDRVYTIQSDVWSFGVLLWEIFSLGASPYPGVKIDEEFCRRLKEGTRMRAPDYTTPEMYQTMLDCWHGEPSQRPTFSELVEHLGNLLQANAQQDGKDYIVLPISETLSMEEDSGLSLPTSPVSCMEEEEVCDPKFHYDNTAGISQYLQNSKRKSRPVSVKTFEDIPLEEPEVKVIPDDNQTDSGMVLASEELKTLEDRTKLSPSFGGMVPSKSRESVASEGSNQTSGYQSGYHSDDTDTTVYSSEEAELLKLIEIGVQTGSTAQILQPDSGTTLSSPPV
SMILES,melting point [°C],"IC50 [1, 4] [µM]",further results
"CC(C)c1nc2ccccc2[nH]1 [Compound 4a, 2-Isopropyl-1H-benzo[d]imidazole]",233 to 235,> 200,
"Cc1ccc(-c2nc3ccccc3[nH]2)o1 [Compound 4b, 2-(5-Methylfuran-2-yl)-1H-benzo[d]imidazole]",,103,
"CC(C)c1nc2ccccc2n1CC(=O)c1ccc(C#N)cc1 [Compound 6, 4-(2-(2-Isopropyl-1H-benzo[d]imidazol-1-yl)acetyl)benzonitrile]",209 to 211,13.5,
"COC(=O)Cn1c(C(C)C)nc2ccccc21 [Compound 8a, Methyl 2-(2-isopropyl-1H-benzo[d]imidazol-1-yl)acetate]",93 to 95,> 200,
"COC(=O)Cn1c(-c2ccc(C)o2)nc2ccccc21 [Compound 8b, Methyl 2-(2-(5-methylfuran-2-yl)-1H-benzo[d]imidazol-1-yl)acetate]",,> 150,
"CCOC(=O)Cn1c(C(C)C)nc2ccccc21 [Compound 8c, Ethyl 2-(2-isopropyl-1H-benzo[d]imidazol-1-yl)acetate]",103 to 105,> 200,
CCOC(=O)Cn1c(-c2ccc(C)o2)nc2ccccc21 [Compound 8d],,> 150,
"CC(C)c1nc2ccccc2n1CC(=O)O [Compound 9a, 2-(2-Isopropyl-1H-benzo[d]imidazol-1-yl)acetic acid]",238 to 240,32.5,
"CC(C)c1nc2ccccc2n1CC(=O)NN [Compound 10a, 2-(2-Isopropyl-1H-benzo[d]imidazol-1-yl)acetohydrazide]",243 to 245,301,
"CC(C)c1nc2ccccc2n1CC(=O)N/N=C/c1ccccc1Cl [Compound 13a, (E)-N′-(2-Chlorobenzylidene)-2-(2-isopropyl-1H-benzo[d]imidazol-1-yl)acetohydrazide]",211 to 213,158,
"CC(C)c1nc2ccccc2n1CC(=O)N/N=C/c1cccc(O)c1 [Compound 13b, (E)-N′-(3-Hydroxybenzylidene)-2-(2-isopropyl-1H-benzo[d]imidazol-1-yl)acetohydrazide]",249 to 251,137,
"CC(C)c1nc2ccccc2n1CC(=O)N/N=C/c1ccc(O)cc1 [Compound 13c, (E)-N′-(4-Hydroxybenzylidene)-2-(2-isopropyl-1H-benzo[d]imidazol-1-yl)acetohydrazide]",296 to 298,140,
"COc1ccc(/C=N/NC(=O)Cn2c(C(C)C)nc3ccccc32)cc1 [Compound 13d, (E)-2-(2-Isopropyl-1H-benzo[d]imidazol-1-yl)-N′-(4-methoxybenzylidene)acetohydrazide]",190 to 192,11.9,IC50 [2]: 0.09 ± 0.002 µM
"CC(C)c1nc2ccccc2n1CC(=O)N/N=C/c1ccc(N(C)C)cc1 [Compound 13e, (E)-N′-(4-(Dimethylamino)benzylidene)-2-(2-isopropyl-1H-benzo[d]imidazol-1-yl)acetohydrazide]",225 to 227,87,
COc1ccc(OC)c(/C=N/NC(=O)Cn2c(C(C)C)nc3ccccc32)c1 [Compound 13f],202 to 204,11.9 to 15.6,"IC50 [2]: 0.4 ± 0.01 µM; IC50 [1, 5]: 16.7 µM"
"COc1cc(/C=N/NC(=O)Cn2c(C(C)C)nc3ccccc32)ccc1O [Compound 13g, (E)-N′-(4-Hydroxy-3-methoxybenzylidene)-2-(2-isopropyl-1H-benzo[d]imidazol-1-yl)acetohydrazide]",165 to 167,13.9,

SMILES,melting point [°C],"IC50 [1, 4] [µM]",further results
"Cc1ccc(/C=N/NC(=O)Cn2c(C(C)C)nc3ccccc32)o1 [Compound 13h, (E)-2-(2-Isopropyl-1H-benzo[d]imidazol-1-yl)-N′-((5-methylfuran-2-yl)methylene)acetohydrazide]",,59.9,
"C/C(=N\NC(=O)Cn1c(C(C)C)nc2ccccc21)c1ccccc1C [Compound 14b, (E)-2-(2-Isopropyl-1H-benzo[d]imidazol-1-yl)-N′-(1-(o-tolyl)ethylidene)acetohydrazide]",238 to 240,26.2,
"C/C(=N\NC(=O)Cn1c(C(C)C)nc2ccccc21)c1ccc(Br)cc1 [Compound 14c, (E)-N′-(1-(4-Bromophenyl)ethylidene)-2-(2-isopropyl-1H-benzo[d]imidazol-1-yl)acetohydrazide]",215 to 217,112,
"C/C(=N\NC(=O)Cn1c(C(C)C)nc2ccccc21)c1ccc(Br)c([N+](=O)[O-])c1 [Compound 14d, (E)-N′-(1-(4-Bromo-3-nitrophenyl)ethylidene)-2-(2-isopropyl-1H-benzo[d]imidazol-1-yl)acetohydrazide]",231 to 233,62,
"COC(=O)COc1ccc(/C=N/NC(=O)Cn2c(C(C)C)nc3ccccc32)cc1OC [Compound 19a, Methyl-(E)-2-(4-((2-(2-(2-isopropyl-1H-benzo[d]imidazol-1-yl)acetyl)hydrazono)methyl)-2-methoxyphenoxy)acetate]",175 to 177,109,
"COC(=O)COc1ccc(/C=N/NC(=O)Cn2c(-c3ccc(C)o3)nc3ccccc32)cc1OC [Compound 19b, Methyl-(E)-2-(2-methoxy-4-((2-(2-(2-(5-methylfuran-2-yl)-1H-benzo[d]imidazol-1-yl)acetyl)hydrazono)methyl)phenoxy)acetate]",150 to 152,71.7,
"CCOC(=O)COc1ccc(/C=N/NC(=O)Cn2c(C(C)C)nc3ccccc32)cc1OC [Compound 19c, Ethyl-(E)-2-(4-((2-(2-(2-isopropyl-1H-benzo[d]imidazol-1-yl)acetyl)hydrazono)methyl)-2-methoxyphenoxy)acetate]",93 to 95,133,
"CCOC(=O)COc1ccc(/C=N/NC(=O)Cn2c(-c3ccc(C)o3)nc3ccccc32)cc1OC [Compound 19d, Ethyl-(E)-2-(2-methoxy-4-((2-(2-(2-(5-methylfuran-2-yl)-1H-benzo[d]imidazol-1-yl)acetyl)hydrazono)methyl)phenoxy)acetate]",136 to 138,114,
"COc1cc(C=O)ccc1OCCOc1ccc(/C=N/NC(=O)Cn2c(C(C)C)nc3ccccc32)cc1OC [Compound 22a, (E)-N′-(4-(2-(4-Formyl-2-methoxyphenoxy)ethoxy)-3-methoxybenzylidene)-2-(2-isopropyl-1H-benzo[d]imidazol-1-yl)acetohydrazide]",218 to 220,> 100,"IC50 [1, 5]: 123 µM"
"COc1cc(C=O)ccc1OCCOc1ccc(/C=N/NC(=O)Cn2c(-c3ccc(C)o3)nc3ccccc32)cc1OC [Compound 22b, (E)-N′-(4-(2-(4-Formyl-2-methoxyphenoxy)ethoxy)-3-methoxybenzylidene)-2-(2-(5-methylfuran-2-yl)-1H-benzo[d]imidazol-1-yl)acetohydrazide]",203 to 205,> 100,"IC50 [1, 5]: 107 µM"
"Cc1ccc(S(=O)(=O)NC(=O)NNC(=O)Cn2c(C(C)C)nc3ccccc32)cc1 [Compound 24a, 2-(2-(2-Isopropyl-1H-benzo[d]imidazol-1-yl)acetyl)-N-tosylhydrazine-1-carboxamide]",,80.7,
"COc1ccc(NC(=S)NNC(=O)Cn2c(C(C)C)nc3ccccc32)cc1 [Compound 24b, 2-(2-(2-Isopropyl-1H-benzo[d]imidazol-1-yl)acetyl)-N-(4-methoxyphenyl)hydrazine-1-carbothioamide]",232 to 234,15.9,
"COc1ccc(NC(=S)NNC(=O)Cn2c(-c3ccc(C)o3)nc3ccccc32)cc1 [Compound 24c, N-(4-Methoxyphenyl)-2-(2-(2-(5-methylfuran-2-yl)-1H-benzo[d]imidazol-1-yl)acetyl)hydrazine-1-carbothioamide]",189 to 191,8.73,
Cc1ccc(-c2nc3ccccc3n2CC(=O)N/N=C/c2ccccc2Cl)o1 [IX],,,IC50 [3]: 22.6 µM
"CNC(=O)c1cc(Oc2ccc(NC(=O)Nc3ccc(Cl)c(C(F)(F)F)c3)cc2)ccn1 [Sorafenib (I), sorafenib, reference compound]",,,"IC50 ([1]; Homo sapiens, HepG2, 48 h): 11 µM"
